T/C data for 23 molecules are collected here from PubChem BioAssay AID192 (DTP/NCI, 2004).

Values joined by “and” are separate entries in the source; they are usually repeats but may differ in a detail not shown here. Equal entries are not always repeated. Inconclusive results and toxic doses are left out.

This experiment concerns BDF1 mice, B16 melanoma ip, median survival T/C. As to the kind of experiment: NCI In Vivo Anticancer Drug Screen. Data for tumor model B16 Melanoma (intraperitoneal) in B6D2F1 (BDF1) mice. The conditions noted are these: endpoint: median survival time, higher = longer survival. In short, it runs like this: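 Tumor-bearing mice received test compound or vehicle. Survival or tumor size was then measured in both groups. The treated-group figure was divided by the control-group figure.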

Where [1] appears, read: dose: 6.25 mg/kg/injection, schedule: Q01DX009 (ip), vehicle: saline.
The mark [2] stands for this setting: dose: 12.5 mg/kg/injection, schedule: Q01DX009 (ip), vehicle: saline.
[3] abbreviates: dose: 25.0 mg/kg/injection, schedule: Q01DX009 (ip), vehicle: saline.
Setting [4] is: dose: 3.12 mg/kg/injection, schedule: Q01DX009 (ip), vehicle: saline.
[5] abbreviates: dose: 12.5 mg/kg/injection, schedule: Q01DX009 (ip), vehicle: Klucel (hydroxypropylcellulose) (HPC).
Setting [6] is: dose: 25.0 mg/kg/injection, schedule: Q01DX009 (ip), vehicle: Klucel (hydroxypropylcellulose) (HPC).
[7] abbreviates: dose: 50.0 mg/kg/injection, schedule: Q01DX009 (ip), vehicle: Klucel (hydroxypropylcellulose) (HPC).
[8] abbreviates: dose: 50.0 mg/kg/injection, schedule: Q01DX009 (ip), vehicle: saline.
Setting [9] is: dose: 100.0 mg/kg/injection, schedule: Q01DX009 (ip), vehicle: Klucel (hydroxypropylcellulose) (HPC).
Setting [10] is: dose: 100.0 mg/kg/injection, schedule: Q01DX009 (ip), vehicle: saline.
The mark [11] stands for this setting: dose: 200.0 mg/kg/injection, schedule: Q01DX009 (ip), vehicle: Klucel (hydroxypropylcellulose) (HPC).
Where [12] appears, read: dose: 400.0 mg/kg/injection, schedule: Q01DX009 (ip), vehicle: Klucel (hydroxypropylcellulose) (HPC).
The mark [13] stands for this setting: dose: 200.0 mg/kg/injection, schedule: Q01DX009 (ip), vehicle: saline.
[14] abbreviates: dose: 12.5 mg/kg/injection, schedule: Q01DX009 (ip), vehicle: saline with Tween-80.
Setting [15] is: dose: 25.0 mg/kg/injection, schedule: Q01DX009 (ip), vehicle: saline with Tween-80.

As to `CCCC[S+](CCCC)CC(=O)c1ccc(-c2ccccc2)cc1`, the T/C runs as follows: (dose: 1.56 mg/kg/injection, schedule: Q01DX009 (ip), vehicle: saline) 110 % of control; (dose: 3.13 mg/kg/injection, schedule: Q01DX009 (ip), vehicle: saline) 96 % of control; under setting [1], 95 % of control; under setting [2], 94 % of control; under setting [3], 105 % of control.

For the molecule `O=c1[nH]c(=O)n([C@H]2CCCO2)cc1F`, the T/C is, setting by setting: under setting [4], 86 % of control; under setting [5], 98 % of control; under setting [2], 86 % of control; under setting [6], 94 % of control; under setting [3], 100 % of control; under setting [7], 97 % of control. Further, the T/C is 95 % of control under setting [8]; 102 % of control under setting [9]; 102 % of control and 104 % of control under setting [10].

Consider `O=C(Nc1ccccc1F)Nc1cccc2ccccc12`, for which the T/C under setting [9] was 100 % of control, the T/C under setting [11] was 88 % of control and the T/C under setting [12] was 94 % of control.

For the molecule `O=C([CH-]C(=O)C(F)(F)F)c1ccccc1.O=C([CH-]C(=O)C(F)(F)F)c1ccccc1.O=C([CH-]C(=O)C(F)(F)F)c1ccccc1.O=C([CH-]C(=O)C(F)(F)F)c1ccccc1.[Eu+3].c1ccncc1`, the T/C under setting [5] was 92 % of control and 96 % of control; the T/C under setting [6] was 88 % of control and 97 % of control; the T/C under setting [7] was 92 % of control and 101 % of control; the T/C under setting [9] is 93 % of control and 98 % of control; the T/C under setting [11] is 102 % of control and 107 % of control; the T/C under setting [12] was 93 % of control and 98 % of control.

In the case of `CN(C)CCCN1c2ccccc2CCc2ccccc21`, the T/C was 95 % of control under setting [4]; 102 % of control under setting [1]; 104 % of control under setting [2]; 93 % of control under setting [3]; 104 % of control under setting [8].

Consider `COC1OC(CO)C(O)C(NC(=O)N(C)N=O)C1O` (stereo not drawn), for which the T/C is, setting by setting: under setting [2], 105 % of control; under setting [8], 150 % of control; under setting [10], 176 % of control and 195 % of control; under setting [13], 196 % of control and 209 % of control.

With `CCN(CCCCO)CCc1c[nH]c2ccc(OC)cc12`, the T/C (dose: 9.3 mg/kg/injection, schedule: Q01DX009 (ip), vehicle: saline) is 105 % of control; the T/C (dose: 18.75 mg/kg/injection, schedule: Q01DX009 (ip), vehicle: saline) was 90 % of control; the T/C (dose: 37.5 mg/kg/injection, schedule: Q01DX009 (ip), vehicle: saline) was 97 % of control; the T/C (dose: 75.0 mg/kg/injection, schedule: Q01DX009 (ip), vehicle: saline) is 110 % of control.

Take `COP12(OCCO1)SC(C(F)(F)F)=C(C(F)(F)F)S2`: the T/C is, setting by setting: under setting [14], 100 % of control; under setting [15], 104 % of control.

On to `Cc1cc(/C=C/c2cc[n+](C)c3ccccc23)c(O)c2ncccc12`, for which the T/C runs as follows: (dose: 3.0 mg/kg/injection, schedule: Q01DX009 (ip), vehicle: saline sonified) 104 % of control; (dose: 6.0 mg/kg/injection, schedule: Q01DX009 (ip), vehicle: saline sonified) 97 % of control; (dose: 12.0 mg/kg/injection, schedule: Q01DX009 (ip), vehicle: saline sonified) 97 % of control; (dose: 24.0 mg/kg/injection, schedule: Q01DX009 (ip), vehicle: saline sonified) 100 % of control; (dose: 48.0 mg/kg/injection, schedule: Q01DX009 (ip), vehicle: saline sonified) 104 % of control.

On to `CCc1ccc(NC(=O)Nc2ccccc2OC)cc1`, for which the T/C is 105 % of control (dose: 100.0 mg/kg/injection, schedule: Q01DX009 (ip), vehicle: gum acacia); 98 % of control (dose: 200.0 mg/kg/injection, schedule: Q01DX009 (ip), vehicle: gum acacia); 101 % of control (dose: 400.0 mg/kg/injection, schedule: Q01DX009 (ip), vehicle: gum acacia).

`CCC12C=CCN3CCC4(c5cc(C6c7[nH]c8ccccc8c7CCN7CCCCC67)c(OC)cc5N(C)C4C(O)(C(=O)OC)C1OC(C)=O)C32` (stereo not drawn): the T/C runs as follows: (dose: 0.06 mg/kg/injection, schedule: Q01DX009 (ip), vehicle: other) 98 % of control; (dose: 0.13 mg/kg/injection, schedule: Q01DX009 (ip), vehicle: other) 96 % of control; (dose: 0.25 mg/kg/injection, schedule: Q01DX009 (ip), vehicle: other) 96 % of control; (dose: 0.5 mg/kg/injection, schedule: Q01DX009 (ip), vehicle: other) 108 % of control; (dose: 1.0 mg/kg/injection, schedule: Q01DX009 (ip), vehicle: other) 108 % of control; (dose: 2.0 mg/kg/injection, schedule: Q01DX009 (ip), vehicle: other) 108 % of control.

With `CCC(CC)(COS(=O)(=O)c1ccc(C)cc1)COS(=O)(=O)c1ccc(C)cc1`, the T/C was 100 % of control under setting [9], 93 % of control under setting [11] and 93 % of control under setting [12].

Turning to `O=C(O)c1cc(O)ccc1O`, the T/C runs as follows: under setting [3], 93 % of control; under setting [8], 100 % of control; under setting [10], 102 % of control; under setting [13], 98 % of control.

As to `CCCCS(=O)CC(CO)NC(=O)/C=C/c1c(C)[nH]c(=O)[nH]c1=O` (stereo not drawn), the T/C (dose: 0.63 mg/kg/injection, schedule: Q01DX009 (ip), vehicle: water) is 104 % of control; the T/C (dose: 1.25 mg/kg/injection, schedule: Q01DX009 (ip), vehicle: water) is 102 % of control; the T/C (dose: 2.5 mg/kg/injection, schedule: Q01DX009 (ip), vehicle: water) is 104 % of control; the T/C (dose: 5.0 mg/kg/injection, schedule: Q01DX009 (ip), vehicle: water) was 99 % of control; the T/C (dose: 10.0 mg/kg/injection, schedule: Q01DX009 (ip), vehicle: water) is 95 % of control.

For `O=C(Nc1ccccc1F)c1cccc(C(=O)Nc2ccccc2F)c1`, the T/C runs as follows: under setting [7], 101 % of control; under setting [9], 108 % of control; under setting [11], 96 % of control.

As for `CC(C)NNC(=O)c1ccncc1`, the T/C under setting [2] is 107 % of control; the T/C under setting [3] was 94 % of control and 101 % of control; the T/C under setting [8] was 95 % of control and 101 % of control; the T/C under setting [10] was 110 % of control; the T/C under setting [13] was 92 % of control and 104 % of control.

With `COC1=C(N=[N+]=[N-])C(=O)C(OC)=C(N=[N+]=[N-])C1=O`, the T/C under setting [5] was 111 % of control, the T/C under setting [6] was 95 % of control, the T/C under setting [7] is 94 % of control and the T/C under setting [9] was 91 % of control.

As for `O=C1c2ccccc2C(=O)N1C[P+](c1ccccc1)(c1ccccc1)c1ccccc1`, the T/C reads like this: (dose: 6.25 mg/kg/injection, schedule: Q01DX009 (ip), vehicle: water) 117 % of control; (dose: 12.5 mg/kg/injection, schedule: Q01DX009 (ip), vehicle: water) 112 % of control; (dose: 25.0 mg/kg/injection, schedule: Q01DX009 (ip), vehicle: water) 123 % of control.

For `N=C(N)Sc1cc(O)ccc1O`, the T/C runs as follows: under setting [8], 105 % of control; under setting [10], 94 % of control; under setting [13], 91 % of control.

With `CN(C)CC(C)(C)CN1c2ccccc2Sc2ccccc21`, the T/C is, setting by setting: under setting [1], 117 % of control; under setting [2], 105 % of control; under setting [3], 105 % of control.

Regarding `COc1cc2c(cc1OC)C1=CC(=O)N3CCCC34OS(=O)OC14CC2` (stereo not drawn), the T/C runs as follows: under setting [9], 110 % of control; under setting [11], 103 % of control; under setting [12], 101 % of control.

As to `CCCC(C)C/C(C)=C/C(C)(C)C(CC(=O)N1CCOCC1)C(=O)O` (stereo not drawn), the T/C runs as follows: under setting [14], 100 % of control; under setting [15], 92 % of control; (dose: 25.0 mg/kg/injection, schedule: Q04DX003 (ip), vehicle: saline with Tween-80) 92 % of control; (dose: 50.0 mg/kg/injection, schedule: Q04DX003 (ip), vehicle: saline with Tween-80) 92 % of control.

As to `Cc1c(CNc2ccc(C(=O)NC(CC(=O)O)CC(=O)O)cc2)ccc2nc(N)nc(N)c12`, the T/C (dose: 0.05 mg/kg/injection, schedule: Q01DX009 (ip), vehicle: saline) was 111 % of control; the T/C (dose: 0.1 mg/kg/injection, schedule: Q01DX009 (ip), vehicle: saline) was 111 % of control; the T/C (dose: 0.12 mg/kg/injection, schedule: Q01DX009 (ip), vehicle: saline with Tween-80) is 102 % of control; the T/C (dose: 0.2 mg/kg/injection, schedule: Q01DX009 (ip), vehicle: saline) was 116 % of control; the T/C (dose: 0.25 mg/kg/injection, schedule: Q01DX009 (ip), vehicle: saline with Tween-80) was 91 % of control; the T/C (dose: 0.37 mg/kg/injection, schedule: Q01DX009 (ip), vehicle: saline) is 100 % of control.
